In patent publication US6468983B2, “RNase L activators and antisense oligonucleotides effective to treat telomerase-expressing malignancies” (The Cleveland Clinic Foundation, priority 1997, dated 2002):

Assays:
U373-MG cells = test: Combination with cisplatin in vitro, MTT assay; assay type: cell-based, human
Description: (§1) FIG. 17. Effect of combining 2-5A-anti-hTR with cisplatin on malignant glioma U373-MG cells in vitro and in vivo. FIG. 17A Tumor cells were treated with 2-5A-anti-hTR (0.5 μM, every 24 hr) mixed with Lipofectamine (1.0 μl/25 μl DMEM) or cisplatin for three days, and their viability was determined by MTT assay. Values represent the means±S.D. FIG. 17B Tumors from U373-MG cells (1.0×10^6 cells in 0.05 ml serum free DMEM and 0.05 ml matrigel) were established subcutaneously in nude mice. After four or five weeks when the tumors were approximately 60-100 mm^3, spA4-anti-hTR (5 nmol/20 μl sterile distilled water) were administrated directly into the tumors daily for 7 days. Cisplatin (1.0 or 5.0 mg/kg/mice) was administered intraperitoneally on Days 1, 3 and 5. Five Mice were used in each treatment group. Tumor volume was then determined using calipers, and the mean sizes ±S.D. were calculated.
To determine if the anti-malignant glioma cell activity of chemotherapeutic agent, cisplatin, could be enhance with SpA4-anti-hTR, a combination therapy protocol was devised (FIG. 17). The point at which 50% cell death was achieved was using 1 microgram per ml of cisplatin plus 0.5 micromolar of SpA4-anti-hTR; whereas in the absence of SpA4-anti-hTR, >10 micrograms per ml of cisplatin were required to achieve 50% cell death (FIG. 17). […] Furthermore, we determined the effect of combining 2-5A-anti-hTR with cisplatin on U373-MG cells in vitro and in vivo. […] The IC50 of cisplatin was reduced from 10.0 to 1.0 μg/ml by combination of spA4-anti-hTR.

U373-MG tumors [1] = test: Combination with cisplatin on subcutaneous tumors in nude mice; assay type: in vivo; settings: cisplatin 1 or 5 mg/kg i.p. Days 1, 3, 5 combined with spA4-anti-hTR 5 nmol intratumoral daily 7 days, versus cisplatin alone
Description: as §1
To determine if the anti-malignant glioma cell activity of chemotherapeutic agent, cisplatin, could be enhance with SpA4-anti-hTR, a combination therapy protocol was devised (FIG. 17). […] Furthermore, we determined the effect of combining 2-5A-anti-hTR with cisplatin on U373-MG cells in vitro and in vivo. […]

U251-MG tumors [2] = test: Subcutaneous xenografts in nude mice, intratumoral oligonucleotide; assay type: in vivo, Balb/c nude mice
Description: (§2) U251-MG and U373 MG tumor cells (1.0×10^6 cells in 0.1 ml serum free DMEM and 0.1 ml Matrigel) were injected subcutaneously into the right flank of 8-12 week-old female Balb/c nude mice (5 mice for each treatment group). Tumor growth was monitored using calipers every 2- or 3-days. Tumor volume (V) was calculated as (L×W^2)/2, where L=length (mm) and W=width (mm). Oligonucleotide treatment was initiated when the tumors reached an average tumor volume of 60-100 mm^3 (about four to five weeks after injection). Oligonucleotides (5 nmol/20 microliter sterile distilled water) were administered by injecting them directly into the tumor every 24 hr for 7-14 days. Some experiments included lipofectamine at 1 microliter per 20 microliters final volume of oligonucleotide solution. Mice were sacrificed by cervical dislocation the day after the final injection and the tumors were removed, frozen rapidly and 12 μm sections were prepared for histological studies. During all of these experiments, which were approved by the CCF Research Programs Committee, the animals were housed and handled in accordance with the National Institutes of Health guidelines.

[3] = test system: renal cell carcinoma cell line, RCC; test: Viable cell count, daily oligonucleotide plus lipofectamine; assay type: cell-based, human; settings: 0.5 micromolar daily plus lipofectamine, 3 days
Description: (§3) Cells (10,000/well) were seeded on 96 well tissue culture dishes, and treated every 24 hours. A 10× concentrated mixture of oligonucleotides plus lipofectamine in water was prepared containing 5 micromolar oligonucleotide and 80 microgram per ml lipofectamine™ (Gibco/BRL) and incubated for 10 min at room temperature. Media was removed from the cells, 10 microliters of the oligonucleotide/lipofectamine mixture was added directly to the cultured cells followed by 90 microliters of media plus serum. The media was changed with oligonucleotide/lipofectamine treatments every 24 h. Cells were passaged when the control cells reached confluency, and viable cells were counted after staining with Trypan Blue (GibcoBRL). The numbers of cells treated only with lipofectamine were used as the control to calculate percentages of cell survival or viability.
Similarly, the viability of the breast cancer cell line, MDA468, was reduced by 64% by SpA4-anti-hTR, while the control oligonucleotides reduced cell viability by <20% (FIG. 6). Viability of the human melanoma cell line, A375, was reduced by 43% in three days by SpA4-anti-hTR, while the control oligonucleotides had no effect (FIG. 7). […] Viability of a third human melanoma cell line, SK-MEL-5, was reduced by 43% by SpA4-anti-hTR, with minimal effects by the control oligonucleotides (FIG. 7). Two prostate tumor cells lines, PC3 and DU145, were suppressed by SpA4-anti-hTR treatments by 45% and 60%, respectively (FIGS. 6 and 10). […] The viability of the malignant glioma cell line, U373, was reduced by about 60% in 3 days, with intermediate effects by the control oligonucleotides (FIG. 6). Therefore, the proliferation and survival of every tumor cell type tested was inhibited by SpA4-anti-hTR. […] In contrast, there was no apoptosis detected in the control cells treated with lipofectamine without oligonucleotide (FIG. 12 upper panel).

U373 cells = test: Viable cell count (trypan blue), daily oligonucleotide plus lipofectamine; assay type: cell-based, human; settings: U373, 0.5 micromolar daily plus lipofectamine; for cell viability / viable cell numbers reduced by: 7 days
Description: as §3

U251-MG cells = test: Cell viability assay, trypan blue dye exclusion, oligonucleotide in water every 12 hr; assay type: cell-based, human; settings: 5 micromolar every 12 hr; for cell death / effect on viability (in words): 14 days
Description: The cytotoxic effect of 2-5A activator antisense complexes on tumor cells was determined using the trypan blue dye exclusion assay. Tumor cells were seeded at 10^4 cells/well (0.1 ml) in 96-well flat-bottomed plates and incubated overnight at 37° C. Then, oligonucleotides (5 micromolar) in water were added into cells every 12 hr. On successive days the cells were harvested and 25% of the total was examined microscopically to determine the percentage of viable cells, another 25% was replated to continue treatment and the remaining 50% were used for the TRAP assay.
Knowing that hTR could be inactivated by the 2-5A antisense treatment, U251-MG cells were treated every 12 hours over a 14 day period with the same three oligonucleotides. 79% of the cells treated with spA4-anti-hTR were killed over the 14 day period with a significant (50%) reduction in cell viability after only 5 days. […] These experiments have since been repeated on a number of occasions with U251-MG cells to test new batches of oligonucleotides, always with the same results. […] Thus, after 14 days from the initial treatment with spA4-anti-hTR, the viability of U251-MG cells, as shown by Trypan-blue exclusion assays, was suppressed in all cases.

telomerase RNA (hTR) = test: RT-PCR for telomerase RNA in oligonucleotide-treated U251-MG cells; assay type: cell-based, human; settings: oligonucleotide 5 μM, 5 hours treatment
Description: Chimeric oligonucleotides were synthesised on solid supports and purified as described previously (Torrence et al 1993; Lesiak et al 1993; Xiao et al 1994, 1996; Cirino et al 1997). Tumor cells were seeded at 3×10^5 cells/well (3 ml) in 6-well plates and incubated overnight at 37° C. Cells were then treated with oligonucleotides (5 μM). Five hours later total RNA was isolated by using Trizol solution (GIBCO BRL, Grand Island, N.Y.). Expression of telomerase RNA was determined with RT-PCR. The RNA was reverse transcribed into complementary DNA (cDNA) with random oligos used as a primer, and then the cDNA was diluted three times with buffer 10×PCR buffer (Perkin-Elmer, Norwalk, Conn.) at a final concentration of 1:4. The DNA at each dilution was amplified using primers to antisense and sense sequences on opposite sides of the human telomerase RNA sequence, 5′-[…]-3′ (SEQ ID NO:4) and 5′[…]-3′ […], respectively, or to the GAPDH coding sequence, 5′-[…]-3′ […] and 5′[…]-3′ (SEQ ID NO:7), respectively, producing DNA fragments of 400 bp for telomerase cDNA and 508 bp for the GAPDH cDNA, respectively. The PCR went for 30 cycles (94° C., 1 min; 55° C., 1 min; 72° C., 2 min) for telomerase and 30 cycles (94° C., 1 min; 60° C., 1 min; 74° C., 3 min) for GAPDH. The PCR products were analyzed by 1.2% agarose gel electrophoresis and ethidium bromide staining.
Aliquots of U251-MG cells were treated with the “active” oligonucleotide and the two controls for 5 hours. RNA was then prepared from these cells and subjected to RT-PCR to detect telomerase RNA. […] In contrast, telomerase RNA (hTR) was present in cells treated with the control oligonucleotides; spA2-anti-hTR and spA4-anti-(M6)hTR. Thus, hTR could be selectively destroyed in U251-MG cells. Since the RT-PCR assay is not quantitative, it was not possible to assess whether treatment with the spA2-anti-hTR , which has the fully complementary target sequence, had any antisense effect by itself (see below). […]

U373-MG tumors [4] = test: Subcutaneous xenografts in nude mice, intratumoral oligonucleotide; assay type: in vivo, Balb/c nude mice; settings: 5 nmol intratumoral daily for 7 days
Description: as §2

U251-MG tumors [5] = test: In situ end-labeling (TUNEL) of DNA in subcutaneous xenografts; assay type: in vivo, nude mice; settings: 5 nmol every day for 7 days
From the text: FIG. 14. In situ end-labeling of DNA in subcutaneous xenografts of nude mice. After treatment with oligonucleotides (5 nmol, every day) for 7 days, the mice were sacrificed and the subcutaneous mass was removed, frozen, and sectioned on a cryostat. The tumor specimens from U251-MG cells were counterstained by hematoxylin and eosin following the TUNEL technique. Arrows show representatives of tumor cells positive for DNA fragmentation (×400). (above) spA4-anti-(M6)hTR, 7 Day; (below) spA4-anti-hTR, 7 Day.
To further determine whether treatment with oligonucleotides induced apoptosis, tumor cells and tissues were stained by the terminal deoxynucleotidyl transferase (TdT)-mediated DUTP nick end labeling (TUNEL) technique using Apo-Tag kit (peroxidase conjugated) (Oncor Inc., Gaithersburg, Md.). The staining of apoptotic cells was done on U373MG cells. Oligonucleotides with lipofectamine was added to the cells every day. The final concentrations were 0.5 micromolar and 8 microgram/ml for oligo and lipofectamine, respectively. […]
U251-MG and U373 MG tumor cells (1.0×10^6 cells in 0.1 ml serum free DMEM and 0.1 ml Matrigel) were injected subcutaneously into the right flank of 8-12 week-old female Balb/c nude mice (5 mice for each treatment group). Tumor growth was monitored using calipers every 2- or 3-days. Tumor volume (V) was calculated as (L×W^2)/2, where L=length (mm) and W=width (mm). […]

Q: How did the IC50 of cisplatin (U373-MG cells; U373-MG, in combination with spA4-anti-hTR 0.5 μM every 24 hr plus Lipofectamine, three days, MTT) turn out when N.N.[Cl][Pt][Cl] [cisplatin] was run?
A: 1.0 µg/mL

Q: What about the “cisplatin required to achieve 50% cell death” value (U373-MG cells; in the absence of SpA4-anti-hTR) of the same molecule?
A: > 10 micrograms per ml

Q: And the “cisplatin at which 50% cell death was achieved” value (U373-MG cells; plus 0.5 micromolar of SpA4-anti-hTR)?
A: 1 microgram per ml

Q: What about the “cytotoxic effect of cisplatin on subcutaneous tumors (in words)” value (U373-MG tumors [1]) of the same molecule?
A: significantly enhanced

Q: Which “tumor response (in words)” value (U251-MG tumors [2]; 14 days treatment) does the source give for “Sp5′A2′p5′A2p-[(Bu)p]2-5′GCG CGG GGA GCA AAA GCA C3′-3′T5′ (antisense GCGCGGGGAGCAAAAGCAC; 5' 2-5A dimer via butanediol linkers, 3'-3' T cap, chemistry not fully specified) [spA2-anti-hTR, control with only two 2′,5′-linked adenylyl residues, defective 2-5A]” here?
A: lack of response

Q: What about the “effect on growth/viability (in words)” value [3] of the same molecule?
A: no reduction in viability

Q: What about the “cell viability / viable cell numbers reduced by” value (U373 cells) of the same molecule?
A: 42%

Q: What about the “cell death / effect on viability (in words)” value (U251-MG cells) of the same molecule?
A: mild antisense effect

Q: And the cells remained viable (U251-MG cells; over the 14 day treatment period)?
A: 80%

Q: What about the “telomerase RNA (hTR) detected by RT-PCR” value (telomerase RNA (hTR)) of the same molecule?
A: present

Q: How did the “tumor growth (in words)” value (U373-MG tumors [4]) turn out when “Sp5′A2′p(5′A2p)3-[(Bu)p]25′ GCC CGC GGT GCT AAT GCT C3′-3′T5′ (antisense GCCCGCGGTGCTAATGCTC; 5' tetrameric 2-5A via butanediol linkers, 3'-3' T cap, chemistry not fully specified) [spA4-anti-(M6)hTR, control with functional tetrameric 2-5A and six mismatched nucleotides in the antisense cassette]” was run?
A: continued to increase in size

Q: What about the “tumor growth (in words)” value (U251-MG tumors [2]; 5 nmol intratumoral daily for 7 days) of the same molecule?
A: continued to increase in size

Q: What about the “average net weight of the tumors after treatment” value (U251-MG tumors [2]; 14 days treatment) of the same molecule?
A: 92.0 ± 14.7 mg

Q: What about the “tumor response (in words)” value (U251-MG tumors [2]; 14 days treatment) of the same molecule?
A: lack of response

Q: What about the “increase in tumor size during the treatment period” value (U251-MG tumors [2]; intratumoral daily for 14 days, relative to starting size) of the same molecule?
A: 87%

Q: What about the “effect on growth/viability (in words)” value [3] of the same molecule?
A: no reduction in viability

Q: And the “apoptotic cells observed in tumors (TUNEL)” value (U251-MG tumors [5])?
A: a few apoptotic cells

Q: And the “cell viability / viable cell numbers reduced by” value (U373 cells)?
A: 43%

Q: What about the “cell death / effect on viability (in words)” value (U251-MG cells) of the same molecule?
A: little, if any, cell death

Q: What about the “telomerase RNA (hTR) detected by RT-PCR” value (telomerase RNA (hTR)) of the same molecule?
A: present

Q: With “Sp5′A(2′p5′A)3-Bu2-5′GCC CGG GGT GCA AAT GCA C3′-3′T5′ [spA4-anti-(M3)hTR]” as the molecule, how does the “cell viability / viable cell numbers reduced by” value (U373 cells) read?
A: 76%

Q: With “Sp5′A(2′p5′A)11-Bu2-5′GCG CGG GGA GCA AAA GCA C3′-3′T5′ (antisense GCGCGGGGAGCAAAAGCAC; 5' 2-5A (A12) via butanediol linkers, 3'-3' T cap, chemistry not fully specified) [spA12-anti-hTR, compound containing twelve 2′,5′-linked adenylyl residues]” as the molecule, how does the “anti-cellular activity compared with spA4-anti-hTR (in words)” value (U373 cells; after 7 days) read?
A: considerably more anti-cellular activity
